What was measured:
Test in all cases: concentration in plasma after dosing
Rat [1] = conditions: dosed: Bromodichloromethane, 10 mg/kg, iv, Female, F344
Rat [2] = conditions: 1 h; dosed: Bromodichloromethane; 10 mg/kg; iv; Female; F344
Rat [3] = conditions: dosed: Bromodichloromethane, 10 mg/kg, iv, Male, F344
Rat [4] = conditions: 1 h; dosed: Bromodichloromethane; 10 mg/kg; iv; Female; F344; remark: listed apart in the source
Rat [5] = conditions: dosed: Bromodichloromethane, 10 mg/kg, iv, Female, F344; remark: listed apart in the source
Rat [6] = conditions: dosed: Bromodichloromethane, 10 mg/kg, iv, Female, F344; remark: listed apart in the source
Rat [7] = conditions: 4 h; dosed: Bromodichloromethane; 10 mg/kg; iv; Male; F344
Rat [8] = conditions: 10 min; dosed: Bromodichloromethane; 10 mg/kg; iv; Female; F344
Rat [9] = conditions: 10 min; dosed: Bromodichloromethane; 10 mg/kg; iv; Male; F344
Rat [10] = conditions: dosed: Bromodichloromethane, 10 mg/kg, iv, Male, F344; remark: listed apart in the source
Rat [11] = conditions: dosed: Bromodichloromethane, 10 mg/kg, iv, Male, F344; remark: listed apart in the source
Rat [12] = conditions: dosed: Bromodichloromethane, 10 mg/kg, iv, Female, F344; remark: listed apart in the source
Rat [13] = conditions: dosed: Bromodichloromethane, 10 mg/kg, iv, Female, F344; remark: listed apart in the source
Rat [14] = conditions: dosed: Bromodichloromethane, 10 mg/kg, iv, Male, F344; remark: listed apart in the source
Rat [15] = conditions: iv, F344
Rat [16] = conditions: 1 h; dosed: Bromodichloromethane; 10 mg/kg; iv; Male; F344
Rat [17] = conditions: dosed: Bromodichloromethane, 10 mg/kg, iv, Male, F344; remark: listed apart in the source
Rat [18] = conditions: dosed: Bromodichloromethane, 10 mg/kg, iv, Male, F344; remark: listed apart in the source
Rat [19] = conditions: 1 h; dosed: Bromodichloromethane; 10 mg/kg; iv; Male; F344; remark: listed apart in the source
Rat [20] = conditions: dosed: Bromodichloromethane, 10 mg/kg, iv, Male, F344; remark: listed apart in the source
Rat [21] = conditions: dosed: Bromodichloromethane, 10 mg/kg, iv, Female, F344; remark: listed apart in the source
Rat [22] = conditions: 10 min; dosed: Bromodichloromethane; 10 mg/kg; iv; Male; F344; remark: listed apart in the source
Rat [23] = conditions: dosed: Bromodichloromethane, 10 mg/kg, iv, Female, F344; remark: listed apart in the source
Rat [24] = conditions: dosed: Bromodichloromethane, 10 mg/kg, iv, Female, F344; remark: listed apart in the source
Rat [25] = conditions: dosed: Bromodichloromethane, 10 mg/kg, iv, Female, F344; remark: listed apart in the source
Rat [26] = conditions: dosed: Bromodichloromethane, 10 mg/kg, iv, Female, F344; remark: listed apart in the source
Rat [27] = conditions: dosed: perfluorohexane-1-sulphonic acid – potassium salt, 4 mg/kg, iv, Female, F344
Rat [28] = conditions: dosed: perfluorohexane-1-sulphonic acid – potassium salt, 4 mg/kg, iv, Female, F344; remark: listed apart in the source
Rat [29] = conditions: dosed: perfluorohexane-1-sulphonic acid – potassium salt, 4 mg/kg, iv, Female, F344; remark: listed apart in the source
Rat [30] = conditions: dosed: perfluorohexane-1-sulphonic acid – potassium salt, 4 mg/kg, iv, Female, F344; remark: listed apart in the source
Rat [31] = conditions: dosed: perfluorohexane-1-sulphonic acid – potassium salt, 4 mg/kg, iv, Female, F344; remark: listed apart in the source
Rat [32] = conditions: 192 h; dosed: perfluorohexane-1-sulphonic acid – potassium salt; 4 mg/kg; iv; Female; F344
Rat [33] = conditions: dosed: perfluorohexane-1-sulphonic acid – potassium salt, 4 mg/kg, iv, Female, F344; remark: listed apart in the source
Rat [34] = conditions: dosed: perfluorohexane-1-sulphonic acid – potassium salt, 4 mg/kg, iv, Female, F344; remark: listed apart in the source
Rat [35] = conditions: dosed: perfluorohexane-1-sulphonic acid – potassium salt, 4 mg/kg, iv, Female, F344; remark: listed apart in the source
Rat [36] = conditions: dosed: perfluorohexane-1-sulphonic acid – potassium salt, 4 mg/kg, iv, Female, F344; remark: listed apart in the source
Rat [37] = conditions: dosed: perfluorohexane-1-sulphonic acid – potassium salt, 4 mg/kg, iv, Female, F344; remark: listed apart in the source
Rat [38] = conditions: dosed: perfluorohexane-1-sulphonic acid – potassium salt, 4 mg/kg, iv, Female, F344; remark: listed apart in the source
Rat [39] = conditions: dosed: perfluorohexane-1-sulphonic acid – potassium salt, 4 mg/kg, iv, Female, F344; remark: listed apart in the source
Rat [40] = conditions: dosed: perfluorohexane-1-sulphonic acid – potassium salt, 4 mg/kg, iv, Female, F344; remark: listed apart in the source
Rat [41] = conditions: 1 h; dosed: perfluorohexane-1-sulphonic acid – potassium salt; 4 mg/kg; iv; Female; F344
Rat [42] = conditions: dosed: perfluorohexane-1-sulphonic acid – potassium salt, 4 mg/kg, iv, Female, F344; remark: listed apart in the source
Rat [43] = conditions: dosed: perfluorohexane-1-sulphonic acid – potassium salt, 4 mg/kg, iv, Female, F344; remark: listed apart in the source
Rat [44] = conditions: dosed: perfluorohexane-1-sulphonic acid – potassium salt, 4 mg/kg, iv, Female, F344; remark: listed apart in the source
Rat [45] = conditions: dosed: perfluorohexane-1-sulphonic acid – potassium salt, 4 mg/kg, iv, Female, F344; remark: listed apart in the source
Rat [46] = conditions: dosed: perfluorohexane-1-sulphonic acid – potassium salt, 4 mg/kg, iv, Female, F344; remark: listed apart in the source
Rat [47] = conditions: dosed: perfluorohexane-1-sulphonic acid – potassium salt, 4 mg/kg, iv, Female, F344; remark: listed apart in the source
Rat [48] = conditions: dosed: perfluorohexane-1-sulphonic acid – potassium salt, 4 mg/kg, iv, Female, F344; remark: listed apart in the source
Rat [49] = conditions: dosed: perfluorohexane-1-sulphonic acid – potassium salt, 4 mg/kg, iv, Female, F344; remark: listed apart in the source
Rat [50] = conditions: dosed: perfluorohexane-1-sulphonic acid – potassium salt, 4 mg/kg, iv, Female, F344; remark: listed apart in the source
Rat [51] = conditions: dosed: perfluorohexane-1-sulphonic acid – potassium salt, 4 mg/kg, iv, Female, F344; remark: listed apart in the source

ClC(Cl)Br [Bromodichloromethane]
Conditions	concentration in plasma [ng/mL]
Rat [1], 0.25 h	618
Rat [1], 8 h	3.69
Rat [3], 2 min	2880
Rat [3], 6 h	16.1
Rat [5], 4 h	9.88
Rat [5], 5 min	2300
Rat [6], 2 min	2280
Rat [6], 6 h	8.65
Rat [10], 2 min	3310
Rat [10], 6 h	26.3
Rat [11], 0.25 h	535
Rat [11], 8 h	6.97
Rat [12], 0.5 h	203
Rat [12], 4 h	13.8
Rat [13], 0.5 h	307
Rat [13], 2 h	40.2
Rat [14], 0.5 h	402
Rat [14], 2 h	42.5
Rat [17], 0.25 h	1340
Rat [17], 8 h	3.44
Rat [18], 2 h	56.3
Rat [18], 5 min	2210
Rat [20], 4 h	21.8
Rat [20], 5 min	2570
Rat [21], 2 min	1680
Rat [21], 6 h	11.9
Rat [23], 2 h	18.4
Rat [23], 10 min	926
Rat [24], 0.25 h	341
Rat [24], 8 h	10.7
Rat [25], 0.25 h	44.5
Rat [25], 8 h	6.93
Rat [26], 0.5 h	67.9
Rat [26], 2 h	87.6

Conditions	concentration in plasma [ng/mL]
Rat [2]	92.4
Rat [4]	68
Rat [7]	11.1
Rat [8]	779
Rat [9]	1310
Rat [16]	186
Rat [19]	151
Rat [22]	1640

concentration in plasma [ng/mL], Rat [15], dosed: Bromodichloromethane, 10 mg/kg
Conditions	Female	Male
0.25 h	70.4	1070
0.5 h	312	220
1 h	62.1	105
2 h	63.4	60.8
2 min	2590	2820
4 h	7.81	15.7
5 min	1170	1100
6 h	7.86	31.4
8 h	6.28	4.65
10 min	589	1070
12 h	–	3.96

O=S(=O)([O-])C(F)(F)C(F)(F)C(F)(F)C(F)(F)C(F)(F)C(F)(F)F.[K+] [perfluorohexane-1-sulphonic acid – potassium salt]
Conditions	concentration in plasma [ng/mL]
Rat [27], 1 h	3840
Rat [27], 48 h	1000
Rat [28], 5 min	6140
Rat [28], 6 h	2330
Rat [28], 192 h	118
Rat [29], 5 min	842
Rat [29], 6 h	298
Rat [30], 0.5 h	4010
Rat [30], 24 h	1450
Rat [31], 0.5 h	4140
Rat [31], 24 h	1650
Rat [33], 1 h	3150
Rat [33], 48 h	1130
Rat [34], 0.5 h	2900
Rat [34], 12 h	2090
Rat [34], 1200 h	288
Rat [35], 0.5 h	3610
Rat [35], 12 h	2480
Rat [35], 864 h	496
Rat [36], 0.25 h	5150
Rat [36], 12 h	2040
Rat [37], 3 h	3290
Rat [37], 96 h	566
Rat [38], 1 h	3180
Rat [38], 48 h	842
Rat [39], 3 h	3150
Rat [39], 96 h	484
Rat [40], 0.5 h	3970
Rat [40], 24 h	2200
Rat [40], 1200 h	494
Rat [42], 3 h	2910
Rat [42], 5 min	6770
Rat [42], 528 h	879
Rat [43], 0.25 h	4330
Rat [43], 12 h	1840
Rat [44], 0.25 h	4180
Rat [44], 6 h	2530
Rat [44], 864 h	818
Rat [45], 3 h	2380
Rat [45], 5 min	4710
Rat [45], 192 h	1450
Rat [46], 1 h	3140
Rat [46], 24 h	2330
Rat [46], 1200 h	393
Rat [47], 3 h	2550
Rat [47], 96 h	387
Rat [48], 0.25 h	4180
Rat [48], 12 h	1750
Rat [49], 0.25 h	2050
Rat [49], 6 h	1440
Rat [49], 528 h	491
Rat [50], 5 min	5590
Rat [50], 6 h	2440
Rat [50], 192 h	126
Rat [51], 0.5 h	4200
Rat [51], 24 h	1370

Conditions	concentration in plasma [ng/mL]
Rat [32]	1390
Rat [41]	170

Rat [15], dosed: perfluorohexane-1-sulphonic acid – potassium salt, 4 mg/kg, Female
Conditions	concentration in plasma [ng/mL]
0.25 h	3900
1 h	3190
3 h	1890
5 min	5260
6 h	2390
12 h	2230
24 h	2030
192 h	1200
528 h	519
864 h	551
